The record followed here is ChEMBL document CHEMBL4622963, “Optimization of Nicotinamides as Potent and Selective IRAK4 Inhibitors with Efficacy in a Murine Model of Psoriasis” (ACS Med Chem Lett, 2020).

Each structure is given as a SMILES string.

A short description of data set [1]: Drug uptake in imiquimod-induced C57BL/6 mouse model of psoriasis at 3 mg/kg, po dosed via gavage twice daily and measured after 2 hrs by LC-MS analysis. The class given is ADME, organism-based. Conditions: in vivo, read-out: Drug uptake.
Data set [2] deals with Mus musculus. Description: Protection against po dosed imiquimod-induced psoriasis in C57BL/6 mouse assessed as reduction in clinical signs of psoriasis administered via gavage twice daily and measured on day 6. The class given is functional, organism-based.
The target of data set [3] is T1, Interleukin-1 receptor-associated kinase 4 (Homo sapiens, UniProt Q9NWZ3).
T1 sequence (Q9NWZ3 whole entry): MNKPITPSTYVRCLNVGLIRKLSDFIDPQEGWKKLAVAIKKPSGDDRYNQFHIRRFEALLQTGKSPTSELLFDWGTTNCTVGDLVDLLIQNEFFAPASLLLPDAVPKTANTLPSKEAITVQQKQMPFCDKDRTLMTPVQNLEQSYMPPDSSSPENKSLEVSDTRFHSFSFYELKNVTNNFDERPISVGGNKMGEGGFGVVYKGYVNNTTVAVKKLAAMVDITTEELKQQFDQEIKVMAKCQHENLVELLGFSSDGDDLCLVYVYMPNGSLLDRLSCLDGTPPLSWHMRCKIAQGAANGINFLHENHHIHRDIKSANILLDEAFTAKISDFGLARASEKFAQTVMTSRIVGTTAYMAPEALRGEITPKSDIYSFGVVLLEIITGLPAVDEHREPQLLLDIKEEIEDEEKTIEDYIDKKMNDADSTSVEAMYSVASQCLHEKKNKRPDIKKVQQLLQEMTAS
Nature of the data set: Inhibition of IRAK4 in human PBMC assessed as inhibition of LTA-induced IL-6 production preincubated for 30 mins followed by LTA-stimulation and measured after 5 hrs by ELISA. Format: cell-based.

Data set [4] deals with T2, Tyrosine-protein kinase receptor TYRO3 (Homo sapiens, UniProt Q06418).
T2 sequence (Q06418 whole entry): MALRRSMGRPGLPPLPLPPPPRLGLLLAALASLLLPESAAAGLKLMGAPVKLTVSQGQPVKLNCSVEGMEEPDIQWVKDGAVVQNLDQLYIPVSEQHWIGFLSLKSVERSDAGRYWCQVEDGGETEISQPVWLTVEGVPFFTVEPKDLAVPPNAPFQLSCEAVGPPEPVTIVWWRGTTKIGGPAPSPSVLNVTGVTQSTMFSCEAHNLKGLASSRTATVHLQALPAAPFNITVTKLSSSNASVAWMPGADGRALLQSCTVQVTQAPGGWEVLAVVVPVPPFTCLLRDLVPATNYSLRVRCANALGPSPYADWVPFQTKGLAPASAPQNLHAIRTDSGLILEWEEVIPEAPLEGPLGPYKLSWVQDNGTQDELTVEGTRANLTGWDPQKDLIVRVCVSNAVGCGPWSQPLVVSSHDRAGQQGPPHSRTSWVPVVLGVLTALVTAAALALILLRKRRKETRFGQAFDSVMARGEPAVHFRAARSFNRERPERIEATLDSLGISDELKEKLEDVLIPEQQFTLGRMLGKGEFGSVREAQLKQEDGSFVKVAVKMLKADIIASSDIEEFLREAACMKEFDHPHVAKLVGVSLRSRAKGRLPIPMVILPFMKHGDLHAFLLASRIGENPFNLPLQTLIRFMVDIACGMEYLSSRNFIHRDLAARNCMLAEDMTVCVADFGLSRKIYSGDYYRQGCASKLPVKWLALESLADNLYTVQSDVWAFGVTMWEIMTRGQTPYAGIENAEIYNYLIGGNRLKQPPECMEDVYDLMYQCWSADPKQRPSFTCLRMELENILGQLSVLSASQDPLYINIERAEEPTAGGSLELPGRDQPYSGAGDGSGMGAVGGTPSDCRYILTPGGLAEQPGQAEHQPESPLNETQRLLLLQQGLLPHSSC
Description: Inhibition of human wild type partial length TYRO3 (497 to 814 residues) expressed in bacterial expression system.

Data set [5] deals with T1, Interleukin-1 receptor-associated kinase 4. Nature of the data set: Inhibition of IRAK4 (unknown origin) using FL-IPTSPITTTYFFFKKK peptide and ATP as substrate incubated for 60 mins by fluorescence based caliper assay.
In data set [6] the target is T3, Interleukin-1 receptor-associated kinase 4 (Mus musculus) (UniProt Q8R4K2).
T3 sequence (whole entry): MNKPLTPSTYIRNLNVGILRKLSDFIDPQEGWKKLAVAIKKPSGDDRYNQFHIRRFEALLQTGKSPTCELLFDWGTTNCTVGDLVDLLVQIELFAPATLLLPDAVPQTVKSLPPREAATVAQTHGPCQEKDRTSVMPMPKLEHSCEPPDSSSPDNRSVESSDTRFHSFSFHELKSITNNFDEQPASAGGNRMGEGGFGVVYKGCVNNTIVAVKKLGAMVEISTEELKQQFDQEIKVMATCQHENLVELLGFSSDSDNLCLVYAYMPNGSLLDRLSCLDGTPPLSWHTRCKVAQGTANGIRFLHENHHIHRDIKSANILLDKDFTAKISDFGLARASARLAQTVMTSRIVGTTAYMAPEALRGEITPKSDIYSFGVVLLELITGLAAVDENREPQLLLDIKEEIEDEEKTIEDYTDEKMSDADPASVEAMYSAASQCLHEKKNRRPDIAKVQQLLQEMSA
Nature of the data set: In vivo Inhibition of IRAK4 in LTA-treated BALB/c mouse assessed as suppression of IL-6 level in serum at 1 mg/kg by ELISA relative to control. Format: functional, organism-based.

A short description of data set [7]: Clearance in mouse at 2 mg/kg, iv administered as infusion or 5 mg/kg, po via gavage measured up to 24 hrs by LC-MS analysis. The class given is ADME, organism-based. Conditions: in vivo.
A short description of data set [8]: Stability in mouse liver microsomes assessed as parent compound remaining measured after 10 mins. Format: ADME, Microsome. Conditions: read-out: Stability.
The nature of data set [9]: Drug uptake in imiquimod-induced C57BL/6 mouse model of psoriasis at 0.3 mg/kg, po dosed via gavage twice daily and measured after 2 hrs by LC-MS analysis. The class given is ADME, organism-based. Conditions: in vivo, read-out: Drug uptake.
The species named for data set [10] is Mus musculus. Nature of the data set: animal or person. Conditions: C57BL/6, po, 144 h, read-out: INH.
Data set [11] is described as follows: Toxicity in po dosed imiquimod-induced C57BL/6 mouse model of psoriasis assessed as drug tolerability. Conditions: in vivo. The class given is organism-based.
Data set [12] is filed under the species Homo sapiens. Description: Selectivity index, ratio of IC50 for N-terminal His6-tagged human full length recombinant LCK expressed in baculovirus infected Sf21 cells to IC50 for IRAK4 (unknown origin).
Data set [13] deals with T3, Interleukin-1 receptor-associated kinase 4 (Mus musculus). Nature of the data set: In vivo Inhibition of IRAK4 in LTA-treated BALB/c mouse assessed as suppression of IL-6 level in serum at 3 mg/kg by ELISA relative to control. The class given is functional, organism-based. On the technique in general: ELISA stands for enzyme-linked immunosorbent assay.
For data set [14] the target is unchanged. Description: In vivo Inhibition of IRAK4 in LTA-treated BALB/c mouse assessed as suppression of IL-6 level in serum at 10 mg/kg by ELISA relative to control. Format: functional, organism-based.
The species entered for data set [15] is Mus musculus. Description: animal or person. Conditions: C57BL/6, po, 144 h, read-out: INH. The source holds these as a separate data set.
A short description of data set [16]: Drug uptake in imiquimod-induced C57BL/6 mouse model of psoriasis at 1 mg/kg, po dosed via gavage twice daily and measured after 8 hrs by LC-MS analysis. The class given is ADME, organism-based. Conditions: in vivo, read-out: Drug uptake.
A short description of data set [17]: Permeability across apical to basolateral side in human Caco2 cells. Conditions: Caco-2.

For the compound `CC(C)Nc1cc(Nc2nc3ccnn3cc2F)ncc1C(=O)NC[C@@H](F)C(C)(C)O`, the concentration at 2 h came to 1950 nM in [1] and 42 nM in data set [9]. The figures for the Activity result in data set [2] and in [11] were “Dose-dependent effect” and “Non-Toxic”, respectively. Moreover, the IC50 came to 370 nM in data set [3], 980 nM in data set [4] and 3.4 nM in data set [5]. For the same compound, the inhibition was 68% in data set [6], 87% in [13] and 93% in [14]. The clearance in [7] came out at 15 mL/min/kg. Also, in [8], the remaining at 10 min was determined as 89%. Further, the inhibition in vivo at 10 mg/kg is 43% in data set [10] and 64% in data set [15]. Moreover, in data set [12], the Ratio IC50 was greater than 590. In addition, in data set [16], the concentration at 8 h was found to be 12 nM. In data set [17], the apical-to-basolateral permeability (Papp A→B) amounted to 21.5 ×10⁻⁶ cm/s.

The IC50 is the midpoint of a concentration-inhibition curve. Broadly, the inhibition is the drop in the measured response relative to a control, in per cent. As usually defined, the Papp A→B is how fast a substance crosses the layer from the apical side. Lower therefore signals poor permeation.
